Read-outs that look alike come from different tables or passages of the source.
Columns and labels:
[1] = system: human tumour cell line A431 (epithelial carcinoma); test: Tumour cell proliferation assay (methylene blue)
[2] = system: HUVEC; test: Endothelial cell migration assay
[3] = system: Human umbilical vein endothelial cells (HUVEC); conditions: 30 μM
[4] = system: Human umbilical vein endothelial cells (HUVEC); test: cells
[5] = system: bFGF induced angiogenesis; test: Growth factor impregnated subcutaneous chamber implant angiogenesis model in mice (bFGF); assay type: in vivo; conditions: 1, 10 and 100 μg/kg/day s.c., chambers removed 5 days after implantation
Experimental: (§1) Effect of Zoledronic Acid on Angiogenesis Induced by Growth Factor Impregnated, Subcutaneous Implants in Mice
(§2) Female mice (Tiflbm:MAG ) weighing 17 to 20 g were used. They were identified via ear markings and kept in groups (6 animals per cage) under normal conditions and observed daily. Six mice were used per treatment group in each experiment. All experiments were performed at least twice.
(§3) Porous tissue chambers made of perfluoro-alkoxy-Teflon (Teflon®-PFA, 21 mm×8 mm diameter, 550 μl volume) and perforated with 80 regularly spaced 0.8 mm holes were used. Both ends were sealed with removable caps of the same material. Four to six chambers were inserted in a silicon tube (12 mm diameter). […]
(§4) Five days after implantation, animals were anaesthetized (3% isoflurane) and sacrificed using an overdose of pentobarbitone (210 mg/kg i.p., Vetanarcol, Veterinaria AG, Zürich, Switzerland). Chambers were then taken out of the animal, the vascularized fibrous tissue that had formed around each implant was carefully removed, weighed and the total amount of blood was quantified by colorimetric determination of the haemoglobin concentration.
(§5) After addition of 2 ml of distilled water, tissue samples were homogenised for 1 min at 24000 rpm (Ultra Turrax T25). […] The absorbance at 540 mn (Uvikon 810 P) is proportional to the haemoglobin concentration. […]

[6] = system: VEGF induced angiogenesis; test: Growth factor impregnated subcutaneous chamber implant angiogenesis model in mice (VEGF); assay type: in vivo; conditions: highest dose tested, 100 μg/kg/day s.c.
Experimental: as §1, §2, §3, §4, §5

O=C(O)CN(CCN(CC(=O)O)CC(=O)O)CC(=O)O [EDTA]
inhibition of A431 proliferation ([1]; 30 μM): 8.8%
effect on A431 proliferation in the tested dose range ([1]; tested dose range): no significant effect
effect on HUVEC migration [2]: no consistent effects
inhibition of HUVEC proliferation induced by FCS ([3]; FCS): 23.7%
inhibition of HUVEC proliferation induced by VEGF ([3]; VEGF): 55.6%
inhibition of HUVEC proliferation induced by bFGF ([3]; bFGF): 49.5%

O=P(O)(O)C(O)(Cn1ccnc1)P(=O)(O)O [Zoledronate, 1-hydroxy-2-(imidazol-1-yl)ethane-1,1-diphosphonic acid]
IC50 ([1]; Homo sapiens, A-431, 72 h, read-out: IC50, proliferation of A431): 1.35 µM
IC50 ([4]; read-out: IC50, VEGF-induced HUVEC proliferation): 6.9 ± 0.4 µM
IC50 ([4]; read-out: IC50, bFGF-induced HUVEC proliferation): 4.2 ± 0.4 µM
IC50 ([4]; read-out: IC50, serum-induced HUVEC proliferation): 4.1 ± 0.6 µM
effect on HUVEC migration ([2]; 30 μM): completely inhibited
effect on HUVEC migration ([2]; concentrations of up to 10 μM, basal medium, serum or VEGF): stimulated HUVEC migration

O=P(O)(O)C(O)(Cn1ccnc1)P(=O)(O)O [Zoledronic acid, 1-hydroxy-2-(imidazol-1-yl)ethane-1,1-diphosphonic acid]
approximate IC50, inhibition of bFGF-induced angiogenic response measured by blood content ([5]; blood content): ~3.1 µg/kg
approximate IC50, inhibition of bFGF-induced angiogenic response measured by weight ([5]; tissue weight): ~2.5 µg/kg
inhibition of the VEGF-induced increase in blood content [6]: significant inhibition
inhibition of the VEGF-induced increase in weight [6]: not in weight

From US20020142996A1, “Use of bisphosphonic acids for treating angiogenesis” (priority 1999, published 2002)
